In experiment [1] the target is JH2 domain of human Tyk2 (Homo sapiens (Human), UniProt P29597). The experiment can be described thus: JH2 Biochemical Assay (TR-FRET probe displacement). Format: binding. As to conditions: JH2 domain of human Tyk2, TR-FRET probe displacement.
The target of experiment [2] is Tyk2 (Homo sapiens (Human), UniProt P29597). The experiment in a line: pSTAT4 Cell Assay (MSD, NK92 cells). It counts as cell-based. As to conditions: MSD.

One may read the IC50 as the concentration needed to halve the response being measured. Read a low IC50 as greater potency in that assay.

Sequence of JH2 domain of human Tyk2 (P29597 575-876): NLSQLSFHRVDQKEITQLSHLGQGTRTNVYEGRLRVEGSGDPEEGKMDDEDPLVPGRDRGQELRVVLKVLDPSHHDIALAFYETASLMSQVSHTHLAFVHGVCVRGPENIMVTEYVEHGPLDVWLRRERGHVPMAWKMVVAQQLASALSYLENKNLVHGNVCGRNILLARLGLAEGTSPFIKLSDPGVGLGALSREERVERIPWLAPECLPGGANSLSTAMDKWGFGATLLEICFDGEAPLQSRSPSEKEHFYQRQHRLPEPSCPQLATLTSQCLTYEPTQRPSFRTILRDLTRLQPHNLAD
Sequence of Tyk2 (P29597 whole entry): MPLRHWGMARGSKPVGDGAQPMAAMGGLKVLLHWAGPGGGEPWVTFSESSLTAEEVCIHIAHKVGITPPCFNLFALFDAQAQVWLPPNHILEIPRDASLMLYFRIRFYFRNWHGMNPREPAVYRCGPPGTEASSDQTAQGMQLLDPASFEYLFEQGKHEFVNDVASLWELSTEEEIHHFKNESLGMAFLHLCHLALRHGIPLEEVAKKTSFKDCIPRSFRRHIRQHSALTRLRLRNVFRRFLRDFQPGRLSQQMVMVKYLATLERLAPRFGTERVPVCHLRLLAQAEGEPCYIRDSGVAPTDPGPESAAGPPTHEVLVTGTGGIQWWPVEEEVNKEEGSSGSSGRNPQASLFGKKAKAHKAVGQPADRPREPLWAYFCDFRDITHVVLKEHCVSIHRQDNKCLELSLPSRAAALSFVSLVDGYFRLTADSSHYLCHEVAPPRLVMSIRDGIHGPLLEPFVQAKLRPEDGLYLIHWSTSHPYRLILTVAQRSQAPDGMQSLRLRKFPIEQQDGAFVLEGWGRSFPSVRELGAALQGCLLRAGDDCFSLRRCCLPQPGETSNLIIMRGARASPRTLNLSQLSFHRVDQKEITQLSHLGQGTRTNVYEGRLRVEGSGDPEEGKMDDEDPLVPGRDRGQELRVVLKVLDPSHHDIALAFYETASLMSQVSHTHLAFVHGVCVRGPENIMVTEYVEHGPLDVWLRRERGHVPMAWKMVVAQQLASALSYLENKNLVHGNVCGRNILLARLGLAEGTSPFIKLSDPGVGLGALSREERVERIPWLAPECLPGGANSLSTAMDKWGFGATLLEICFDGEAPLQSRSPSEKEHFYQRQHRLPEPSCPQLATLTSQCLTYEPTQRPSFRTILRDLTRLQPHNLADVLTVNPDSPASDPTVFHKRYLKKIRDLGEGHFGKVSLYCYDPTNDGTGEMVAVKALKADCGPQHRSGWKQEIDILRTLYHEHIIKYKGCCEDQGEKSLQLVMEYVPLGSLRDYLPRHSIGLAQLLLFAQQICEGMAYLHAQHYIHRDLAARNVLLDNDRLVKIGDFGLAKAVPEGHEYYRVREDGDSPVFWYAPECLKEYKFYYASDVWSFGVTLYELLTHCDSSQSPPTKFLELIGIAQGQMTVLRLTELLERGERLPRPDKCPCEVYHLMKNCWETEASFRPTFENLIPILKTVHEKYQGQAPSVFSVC

As for `COc1cnc(NC(C)=O)cc1Nc1cc(-c2cnn(C3CCC3)c2)nc(C(C)(F)F)n1` [Example 374, N-(4-((6-(1-cyclobutyl-1H-pyrazol-4-yl)-2-(1,1-difluoroethyl)pyrimidin-4-yl)amino)-5-methoxypyridin-2-yl)acetamide], the half-maximal inhibitory concentration (IC50) in experiment [1] is 10 to 100 nM; in experiment [2], 100 to 1000 nM.

As to `COc1cnc(NC(C)=O)cc1Nc1cc(-c2cnn(C(F)F)c2)nc(C(C)(F)F)n1` [Example 375, N-(4-((2-(1,1-difluoroethyl)-6-(1-(difluoromethyl)-1H-pyrazol-4-yl)pyrimidin-4-yl)amino)-5-methoxypyridin-2-yl)acetamide], the results for the IC50 in experiment [1] and in experiment [2] were 10 to 100 nM and 100 to 1000 nM, respectively.

As to `COc1cnc(NC(C)=O)cc1Nc1cc(-c2cnn(C3CC3)c2)nc(C(C)(F)F)n1` [Example 376, N-(4-((6-(1-cyclopropyl-1H-pyrazol-4-yl)-2-(1,1-difluoroethyl)pyrimidin-4-yl)amino)-5-methoxypyridin-2-yl)acetamide], the IC50 in experiment [1] and in experiment [2] was 10 to 100 nM in each case.

On to `COc1cnc(NC(C)=O)cc1Nc1cc(-c2cnn(C3COC3)c2)nc(C(C)(F)F)n1` [Example 377, N-(4-((2-(1,1-difluoroethyl)-6-(1-(oxetan-3-yl)-1H-pyrazol-4-yl)pyrimidin-4-yl)amino)-5-methoxypyridin-2-yl)acetamide], for which the IC50 in experiment [1] and in experiment [2] was 10 to 100 nM each time.

`COc1cnc(NC(C)=O)cc1Nc1cc(-c2cnn(CC3CC3)c2)nc(C(C)(F)F)n1` [Example 378, N-(4-((6-(1-(cyclopropylmethyl)-1H-pyrazol-4-yl)-2-(1,1-difluoroethyl)pyrimidin-4-yl)amino)-5-methoxypyridin-2-yl)acetamide]: the IC50 was not above 10 nM in experiment [1] and 10 to 100 nM in experiment [2].

Regarding `COc1cnc(NC(C)=O)cc1Nc1cc(-c2cnn(CCN3CCOCC3)c2)nc(C(C)(F)F)n1` [Example 379, N-(4-((2-(1,1-difluoroethyl)-6-(1-(2-morpholinoethyl)-1H-pyrazol-4-yl)pyrimidin-4-yl)amino)-5-methoxypyridin-2-yl)acetamide], the IC50 in experiment [1] was not above 10 nM; in experiment [2] it was 10 to 100 nM.

For the compound `COc1cnc(NC(C)=O)cc1Nc1cc(-c2cnn(CCN(C)C)c2)nc(C(C)(F)F)n1` [Example 380, N-(4-((2-(1,1-difluoroethyl)-6-(1-(2-(dimethylamino)ethyl)-1H-pyrazol-4-yl)pyrimidin-4-yl)amino)-5-methoxypyridin-2-yl)acetamide], the figures for the IC50 in experiment [1] and in experiment [2] were not above 10 nM and 10 to 100 nM, respectively.

As for `COc1cnc(NC(C)=O)cc1Nc1cc(-c2cnn(CC(F)(F)F)c2)nc(C(C)(F)F)n1` [Example 381, N-(4-((2-(1,1-difluoroethyl)-6-(1-(2,2,2-trifluoroethyl)-1H-pyrazol-4-yl)pyrimidin-4-yl)amino)-5-methoxypyridin-2-yl)acetamide], the half-inhibitory concentration (IC50) is not above 10 nM in experiment [1] and 10 to 100 nM in experiment [2].

As for `COc1cnc(NC(C)=O)cc1Nc1cc(-c2ccncc2)nc(C(C)(F)F)n1` [Example 382, N-(4-((2-(1,1-difluoroethyl)-6-(pyridin-4-yl)pyrimidin-4-yl)amino)-5-methoxypyridin-2-yl)acetamide], the half-maximal inhibitory concentration (IC50) in experiment [1] and in experiment [2] was 10 to 100 nM each time.

As to `COc1cnc(NC(C)=O)cc1Nc1cc(-c2cnn(C(C)C)c2F)nc(C(C)(F)F)n1` [Example 383, N-(4-((2-(1,1-difluoroethyl)-6-(5-fluoro-1-isopropyl-1H-pyrazol-4-yl)pyrimidin-4-yl)amino)-5-methoxypyridin-2-yl)acetamide], the IC50 in experiment [1] and in experiment [2] was 10 to 100 nM throughout.

In the case of `COc1cnc(NC(C)=O)cc1Nc1cc(-c2cn[nH]c2F)nc(C(C)(F)F)n1` [Example 385, N-(4-((2-(1,1-difluoroethyl)-6-(5-fluoro-1H-pyrazol-4-yl)pyrimidin-4-yl)amino)-5-methoxypyridin-2-yl)acetamide], the IC50 was in the range of 10 to 100 nM in experiment [1] and 100 to 1000 nM in experiment [2].

As to `COCCn1cc(-c2cc(Nc3cc(NC(C)=O)ncc3OC)nc(C(C)(F)F)n2)cn1` [Example 386, N-(4-((2-(1,1-difluoroethyl)-6-(1-(2-methoxyethyl)-1H-pyrazol-4-yl)pyrimidin-4-yl)amino)-5-methoxypyridin-2-yl)acetamide], the figures for the IC50 in experiment [1] and in experiment [2] were not above 10 nM and 10 to 100 nM, respectively.

Regarding `COc1cnc(NC(C)=O)cc1Nc1cc(-c2cccnc2)nc(C(C)(F)F)n1` [Example 388, N-(4-((2-(1,1-difluoroethyl)-6-(pyridin-3-yl)pyrimidin-4-yl)amino)-5-methoxypyridin-2-yl)acetamide], the figures for the half-maximal inhibitory concentration (IC50) in experiment [1] and in experiment [2] were not above 10 nM and 10 to 100 nM, respectively.

As for `COc1cnc(NC(C)=O)cc1Nc1cc(-c2cncc(C)c2)nc(C(C)(F)F)n1` [Example 389, N-(4-((2-(1,1-difluoroethyl)-6-(5-methylpyridin-3-yl)pyrimidin-4-yl)amino)-5-methoxypyridin-2-yl)acetamide], the IC50 in experiment [1] is not above 10 nM; in experiment [2], 10 to 100 nM.

In the case of `COc1cnc(NC(C)=O)cc1Nc1cc(-c2cnc(N3CCOCC3)nc2)nc(C(C)(F)F)n1` [Example 390, N-(4-((2-(1,1-difluoroethyl)-2′-morpholino-[4,5′-bipyrimidin]-6-yl)amino)-5-methoxypyridin-2-yl)acetamide], the IC50 fell in the range of 10 to 100 nM in experiment [1] and 100 to 1000 nM in experiment [2].

For the compound `COc1ccc(-c2cc(Nc3cc(NC(C)=O)ncc3OC)nc(C(C)(F)F)n2)cn1` [Example 391, N-(4-((2-(1,1-difluoroethyl)-6-(6-methoxypyridin-3-yl)pyrimidin-4-yl)amino)-5-methoxypyridin-2-yl)acetamide], the IC50 in experiment [1] was not above 10 nM; in experiment [2], 10 to 100 nM.

On to `COc1ccc(-c2cc(Nc3cc(NC(C)=O)ncc3OC)nc(C(C)(F)F)n2)cn1` [Example 392, N-(4-((2-(1,1-difluoroethyl)-6-(6-methoxypyridin-3-yl)pyrimidin-4-yl)amino)-5-methoxypyridin-2-yl)acetamide], for which the concentration for half-maximal inhibition (IC50) in experiment [1] and in experiment [2] was not above 10 nM throughout.

On to `COc1cnc(NC(C)=O)cc1Nc1cc(-c2ccc(C#N)cc2)nc(C(C)(F)F)n1` [Example 393, N-(4-((6-(4-cyanophenyl)-2-(1,1-difluoroethyl)pyrimidin-4-yl)amino)-5-methoxypyridin-2-yl)acetamide], for which the IC50 in experiment [1] is not above 10 nM; in experiment [2], 10 to 100 nM.

`COc1cnc(NC(C)=O)cc1Nc1cc(-c2ccc(F)c(C#N)c2)nc(C(C)(F)F)n1` [Example 394, N-(4-((6-(3-cyano-4-fluorophenyl)-2-(1,1-difluoroethyl)pyrimidin-4-yl)amino)-5-methoxypyridin-2-yl)acetamide]: the IC50 was not above 10 nM in experiment [1] and 100 to 1000 nM in experiment [2].

Consider `COc1cnc(NC(C)=O)cc1Nc1cc(-c2cn(C)nc2C(F)(F)F)nc(C(C)(F)F)n1` [Example 395, N-(4-((2-(1,1-difluoroethyl)-6-(1-methyl-3-(trifluoromethyl)-1H-pyrazol-4-yl)pyrimidin-4-yl)amino)-5-methoxypyridin-2-yl)acetamide], for which the figures for the IC50 in experiment [1] and in experiment [2] were not above 10 nM and 100 to 1000 nM, respectively.

Take `COc1cnc(NC(C)=O)cc1Nc1cc(-c2cc(F)c3nc(C)cn3c2)nc(C(C)(F)F)n1` [Example 398, N-(4-((2-(1,1-difluoroethyl)-6-(8-fluoro-2-methylimidazo[1,2-a]pyridin-6-yl)pyrimidin-4-yl)amino)-5-methoxypyridin-2-yl)acetamide]: the concentration for half-maximal inhibition (IC50) was not above 10 nM in experiment [1] and 10 to 100 nM in experiment [2].

Turning to `COc1cnc(NC(C)=O)cc1Nc1cc(-c2ccc3nc(C)cn3n2)nc(C(C)(F)F)n1` [Example 399, N-(4-((2-(1,1-difluoroethyl)-6-(2-methylimidazo[1,2-b]pyridazin-6-yl)pyrimidin-4-yl)amino)-5-methoxypyridin-2-yl)acetamide], the figures for the half-maximal inhibitory concentration (IC50) in experiment [1] and in experiment [2] were not above 10 nM and 10 to 100 nM, respectively.

On to `COc1cnc(NC(C)=O)cc1Nc1cc(-c2cc(OC)c3nc(C)cn3c2)nc(C(C)(F)F)n1` [Example 401, N-(4-((2-(1,1-difluoroethyl)-6-(8-methoxy-2-methylimidazo[1,2-a]pyridin-6-yl)pyrimidin-4-yl)amino)-5-methoxypyridin-2-yl)acetamide], for which the IC50 was not above 10 nM in experiment [1] and 100 to 1000 nM in experiment [2].

For the compound `COc1cnc(NC(C)=O)cc1Nc1cc(-c2cc(C#N)c3nc(C)cn3c2)nc(C(C)(F)F)n1` [Example 402, N-(4-((6-(8-cyano-2-methylimidazo[1,2-a]pyridin-6-yl)-2-(1,1-difluoroethyl)pyrimidin-4-yl)amino)-5-methoxypyridin-2-yl)acetamide], the IC50 lay within 10 to 100 nM in experiment [1] and 100 to 1000 nM in experiment [2].

Regarding `CC(=O)Nc1cc(Nc2cc(C)nc(C(C)(F)F)n2)c(OCCF)cn1` [Example 404, N-(4-((2-(1,1-difluoroethyl)-6-methylpyrimidin-4-yl)amino)-5-(2-fluoroethoxy)pyridin-2-yl)acetamide], the IC50 in experiment [1] was not above 10 nM; in experiment [2] it was 10 to 100 nM.

Regarding `CCc1cc(Nc2cc(NC(C)=O)ncc2OCCCF)nc(C(C)(F)F)n1` [Example 405, N-(4-((2-(1,1-difluoroethyl)-6-ethylpyrimidin-4-yl)amino)-5-(3-fluoropropoxy)pyridin-2-yl)acetamide], the half-inhibitory concentration (IC50) in experiment [1] is not above 10 nM; in experiment [2], 10 to 100 nM.

With `CCc1cc(Nc2cc(NC(C)=O)ncc2OCCF)nc(C(C)(F)F)n1` [Example 407, N-(4-((2-(1,1-difluoroethyl)-6-ethylpyrimidin-4-yl)amino)-5-(2-fluoroethoxy)pyridin-2-yl)acetamide], the IC50 in experiment [1] and in experiment [2] was not above 10 nM in each case.

With `CO[C@H]1C[C@H](Oc2cnc(NC(C)=O)cc2Nc2cc(C(C)C)nc(C(C)(F)F)n2)C1` [Example 408, N-(4-((2-(1,1-difluoroethyl)-6-isopropylpyrimidin-4-yl)amino)-5-((1r,3r)-3-methoxycyclobutoxy)pyridin-2-yl)acetamide], the IC50 in experiment [1] and in experiment [2] was not above 10 nM each time.

These data come from patent US20260028365A1 (BIOGEN MA INC., priority 2022, published 2026).
